Assay results from article PMC10321442 (Preventive Nutrition and Food Science, 2023).

Target: α-amylase (Aspergillus oryzae, UniProt P0C1B3)
Assay: amylose hydrolysis inhibition at […], peroxidase-glucose oxidase readout
Format: biochemical
Details: read-out: % inhibition at 0.50 mM

inhibition at 500 µM: 12.7 ± 1.11%
Structure (SMILES): COc1cc(/C=C/C(=O)O[C@H]2CC[C@]34C[C@]35CC[C@]3(C)[C@@H]([C@H](C)CCC=C(C)C)CC[C@@]3(C)[C@@H]5CC[C@H]4C2(C)C)ccc1O [Cycloartenyl ferulate]
